In patent EP4741386A1 (Jiangsu Yahong Meditech Co., Ltd., priority 2023, dated 2025) one finds IC50 data, which are given here for 22 compounds.

Test [1] deals with T1, Recombinant human His6-USP1/His6-UAF1 complex protein (Homo sapiens, UniProt O94782).
T1 construct: His6; purchased R&D E-568-050
Put plainly: In vitro inhibitory activity against USP1 (Ubiquitin Rhodamine 110 fluorescence detection, 384-well plate). To be noted: Ub-Rho substrate, 1 hour pre-incubation, read after 30 minutes. It counts as biochemical. An outline of the steps: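 Compounds, kept as 50 mM DMSO stocks, were acoustically dispensed into modified Tris buffer. Inhibition of recombinant human His6-USP1/His6-UAF1 was read by fluorescence from cleavage of Ub-Rho110 substrate.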

The next test concerns MDA-MB-436. Put plainly: CTG experiment for cell viability (CellTiter-Glo, 96-well plate, 7 days). The format is cell-based. To be noted: Homo sapiens, MDA-MB-436, 168 h, MDA-MB-436 cells, 7 days culture with compound. On the procedure: Test Example 2: CTG experiment for cell viability
• 1. Object: to screen USP1 inhibitors by a CTG assay, using a 96-well plate. • 2. Materials: • The cells used were MDA-MB-436 (manufacturer: Nanjing Cobioer Biotechnology Co., Ltd.) and cultured in DMEM medium, • CTG (CellTiter-Glo® Luminescent Cell Viability Assay kit) (Promega, Cat. No.: G7572), • 96-well plate (Corning, Cat. No.: 3610). • 3. Compounds: all compounds were dissolved in 100% DMSO to obtain 50 mM stock solutions. • 4. Experimental method: • ① Plating: The cells to be tested were spread into a 96-well plate at a certain density, with 200 µL per well, and 200 µL of cell medium was added to the blank wells. […] The cell plate with the compounds was placed in an incubator at 37°C, and further cultured for 7 days prior to detection. • ④ Assay: The substrate and the buffer of CTG kit were mixed evenly. The cell plate with the compounds in Step ③ was taken out from the incubator, and left at room temperature to equilibrate for 30 minutes. The medium containing the compounds was removed from the cell plate, 100 µL of PBS and 50 µL of CTG reagent were added to each well, shaken and mixed for 3 minutes, and then incubated for 10 minutes at room temperature. The plate was read by a BIotek microplate-reader, with a parameter set to 567 CPM. • 5. Curve fitting
It was the same as that for the enzyme.
Background: In ATP-based viability assays light output follows the ATP content of the culture.

T1 sequence (O94782 whole entry): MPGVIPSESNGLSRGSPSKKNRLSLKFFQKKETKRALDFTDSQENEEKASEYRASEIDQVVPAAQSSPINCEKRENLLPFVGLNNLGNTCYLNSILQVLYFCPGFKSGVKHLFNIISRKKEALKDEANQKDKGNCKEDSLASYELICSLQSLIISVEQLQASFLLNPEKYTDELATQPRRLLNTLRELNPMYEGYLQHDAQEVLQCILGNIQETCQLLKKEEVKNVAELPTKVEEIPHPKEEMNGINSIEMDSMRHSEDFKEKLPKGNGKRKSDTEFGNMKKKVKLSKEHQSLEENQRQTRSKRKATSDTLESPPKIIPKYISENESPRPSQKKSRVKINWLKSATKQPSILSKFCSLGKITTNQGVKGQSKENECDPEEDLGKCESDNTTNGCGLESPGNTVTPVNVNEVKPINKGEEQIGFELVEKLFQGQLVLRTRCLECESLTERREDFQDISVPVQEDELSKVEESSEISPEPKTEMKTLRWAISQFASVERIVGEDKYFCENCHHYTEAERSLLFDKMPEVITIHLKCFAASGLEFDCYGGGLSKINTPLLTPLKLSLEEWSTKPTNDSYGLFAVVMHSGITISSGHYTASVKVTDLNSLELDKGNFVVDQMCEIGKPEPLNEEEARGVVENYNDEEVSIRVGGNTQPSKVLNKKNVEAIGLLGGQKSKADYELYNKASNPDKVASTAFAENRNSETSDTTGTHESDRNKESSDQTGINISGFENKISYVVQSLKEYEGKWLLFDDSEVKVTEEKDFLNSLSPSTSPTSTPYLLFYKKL
T1 sequence (Q8TAF3 whole entry partner): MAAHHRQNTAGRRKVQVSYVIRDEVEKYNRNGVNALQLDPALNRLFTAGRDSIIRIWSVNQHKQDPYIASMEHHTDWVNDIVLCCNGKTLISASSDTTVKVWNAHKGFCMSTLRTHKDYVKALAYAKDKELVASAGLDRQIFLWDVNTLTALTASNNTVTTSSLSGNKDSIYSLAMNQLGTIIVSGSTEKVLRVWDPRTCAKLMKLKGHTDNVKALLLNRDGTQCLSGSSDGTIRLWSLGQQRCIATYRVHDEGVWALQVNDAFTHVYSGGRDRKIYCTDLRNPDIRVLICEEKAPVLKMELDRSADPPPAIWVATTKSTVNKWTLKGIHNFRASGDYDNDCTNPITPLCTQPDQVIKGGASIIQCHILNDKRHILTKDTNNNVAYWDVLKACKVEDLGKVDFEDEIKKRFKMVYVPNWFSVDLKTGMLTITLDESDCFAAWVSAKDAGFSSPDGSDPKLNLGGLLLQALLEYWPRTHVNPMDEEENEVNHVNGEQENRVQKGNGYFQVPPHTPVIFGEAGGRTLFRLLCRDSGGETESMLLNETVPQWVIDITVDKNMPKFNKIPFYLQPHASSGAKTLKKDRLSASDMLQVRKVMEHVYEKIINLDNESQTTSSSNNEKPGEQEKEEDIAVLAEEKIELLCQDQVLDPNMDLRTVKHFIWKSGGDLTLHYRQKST

With `COc1cnc(-c2cccnc2C2CC2)nc1NCc1ccc(-c2nc(C(F)(F)F)cn2C)cc1` [Example 153, 2-(2-Cyclopropylpyridin-3-yl)-5-methoxy-N-(4-(1-methyl-4-(trifluoromethyl)-1H-imidazol-2-yl)benzyl)pyrimidin-4-amine], the figures for the IC50 (in test [1]; in the test with MDA-MB-436) were 3.4 nM and 25.4 nM, respectively.

With `COc1cnc(-c2c(OC)ncnc2C(F)(F)F)nc1N(C)C[C@H]1CC[C@H](c2nc(C(F)(F)F)cn2C(C)C)CC1` [Example S37, N-(((1R,4R)-4-(1-isopropyl-4-(trifluoromethyl)-1H-imidazol-2-yl)cyclohexyl)methyl)-4',5-dimethoxy-N-methyl-6'-(trifluoromethyl)-[2,5'-bipyrimidin]-4-amine], the IC50 in test [1] is 12 nM; with MDA-MB-436, 32.6 nM.

As for `[2H]C([2H])([2H])Oc1ncnc(C2CC2)c1-c1ncc(OC)c(NCC23CCC(c4nc(C(F)(F)F)cn4C)(CC2)CC3)n1` [Example S5, 4'-Cyclopropyl-5-methoxy-6'-(methoxy-D3)-N-((4-(1-methyl-4-(trifluoromethyl)-1H-imidazol-2-yl)bicyclo[2.2.2]oct-1-yl)methyl)-[2,5'-bipyrimidin]-4-amine], the IC50 in test [1] worked out at 14 nM; in the test on MDA-MB-436 it was 20.2 nM.

Take `COc1cnc(-c2ccccc2C(C)C)nc1NC[C@H]1CC[C@H](c2nc(C(F)(F)F)cn2C)CC1` [Example 6, 2-(2-Isopropylphenyl)-5-methoxy-N-(((1R,4R)-4-(1-methyl-4-(trifluoromethyl)-1H-imidazol-2-yl)cyclohexyl)methyl)pyrimidin-4-amine]: the IC50 in test [1] stood at 1.2 nM; in the test with MDA-MB-436, 2 nM.

Take `COc1cnc(-c2c(OC)ncnc2OC)nc1NC[C@H]1CC[C@H](c2nc(C(F)(F)F)cn2C2CC2)CC1` [Example S29, N-(((1R,4R)-4-(1-cyclopropyl-4-(trifluoromethyl)-1H-imidazol-2-yl)cyclohexyl)methyl)-4',5,6'-trimethoxy-[2,5'-bipyrimidin]-4-amine]: the IC50 in test [1] came out at 15 nM; with MDA-MB-436, 338 nM.

Turning to `COc1cnc(-c2c(OC)ncnc2C(F)(F)F)nc1N(C)C[C@H]1CC[C@H](c2nc(C(F)(F)F)cn2C)CC1` [Example S36, 4',5-Dimethoxy-N-methyl-N-(((1R,4R)-4-(1-methyl-4-(trifluoromethyl)-1H-imidazol-2-yl)cyclohexyl)methyl)-6'-(trifluoromethyl)-[2,5'-bipyrimidin]-4-amine], the figures for the IC50 (in test [1]; in the test on MDA-MB-436) were 7.1 nM and 1.8 nM, respectively.

For `CC(C)c1ccccc1-c1ncc(C#N)c(NCc2ccc(-c3nc(C(F)(F)F)cn3C)cc2)n1` [Example 39, 2-(2-Isopropylphenyl)-4-((4-(1-methyl-4-(trifluoromethyl)-1H-imidazol-2-yl)benzyl)amino)pyrimidine-5-carbonitrile], the figures for the IC50 (in test [1]; in the test with MDA-MB-436) were 2.8 nM and 56.9 nM, respectively.

Take `COc1cc(CNc2nc(-c3c(OC)ncnc3C3CC3)ncc2OC)ccc1-n1nc(C(F)(F)F)cc1C` [Example 103, 4'-Cyclopropyl-5,6'-dimethoxy-N-(3-methoxy-4-(5-methyl-3-(trifluoromethyl)-1H-pyrazol-1-yl)benzyl)-[2,5'-bipyrimidin]-4-amine]: the IC50 in test [1] stood at 10 nM; in the test with MDA-MB-436, 141 nM.

In the case of `CC(C)n1ncc(Cl)c1-c1nc(NCc2ccc(-c3nc(C(F)(F)F)cn3C)cc2)c2occc2n1` [Example 167, 2-(4-Chloro-1-isopropyl-1H-pyrazol-5-yl)-N-(4-(1-methyl-4-(trifluoromethyl)-1H-imidazol-2-yl)benzyl)furo[3,2-d]pyrimidin-4-amine], the IC50 stood at 0.45 nM in test [1] and 2.9 nM in the test with MDA-MB-436.

Regarding `COc1cnc(-c2ccccc2C2CC2)nc1NCc1ccc(-n2nc(C(F)(F)F)cc2C)cc1` [Example 170, 2-(2-Cyclopropylphenyl)-5-methoxy-N-(4-(5-methyl-3-(trifluoromethyl)-1H-pyrazol-1-yl)benzyl)pyrimidin-4-amine], the IC50 amounted to 2.9 nM in test [1] and 14.5 nM with MDA-MB-436.

For the compound `Cc1cc(C(F)(F)F)nn1-c1ccc(CNc2nc(-c3c(Cl)cnn3C(C)C)nc3ccoc23)cc1` [Example 168, 2-(4-Chloro-1-isopropyl-1H-pyrazol-5-yl)-N-(4-(5-methyl-3-(trifluoromethyl)-1H-pyrazol-1-yl)benzyl)furo[3,2-d]pyrimidin-4-amine], the IC50 in test [1] turned out to be 1.2 nM; in the test with MDA-MB-436 it was 5.1 nM.

Regarding `COc1cnc(-c2c(OC)ncnc2C2CC2)nc1NCC12C3C4C1C1C2C3C41c1nc(C(F)(F)F)cn1C1CC1` (centres unmarked) [Example 216, 4'-cyclopropyl-N-((4-(1-cyclopropyl-4-(trifluoromethyl)-1H-imidazol-2-yl)cuban-1-yl)methyl)-5,6'-dimethoxy-[2,5'-bipyrimidin]-4-amine], the IC50 in test [1] stood at 1.4 nM; in the test with MDA-MB-436 it was 2.7 nM.

`COc1cnc(-c2c(C)cnn2C(C)C)nc1N(C)Cc1ccc(-c2nc(C(F)(F)F)cn2C)cc1` [Example 200, 2-(1-Isopropyl-4-methyl-1H-pyrazol-5-yl)-5-methoxy-N-methyl-N-(4-(1-methyl-4-(trifluoromethyl)-1H-imidazol-2-yl)benzyl)pyrimidin-4-amine]: the IC50 (in test [1]; with MDA-MB-436) was 2.8 nM each time.

In the case of `COc1cnc(-c2c(Cl)cnn2C(C)C)nc1NCC12CCC(c3nc(C(F)(F)F)cn3C)(CC1)OC2` [Example 209, 2-(4-chloro-1-isopropyl-1H-pyrazol-5-yl)-5-methoxy-N-((1-(1-methyl-4-(trifluoromethyl)-1H-imidazol-2-yl)-2-oxabicyclo[2.2.2]octan-4-yl)methyl)pyrimidin-4-amine], the IC50 is 1.6 nM in test [1] and 31.6 nM in the test with MDA-MB-436.

`[2H]C([2H])([2H])N(c1nc(-c2c(OC)ncnc2C2CC2)ncc1OC)C(C)c1ccc(-c2nc(C(F)(F)F)cn2C)cc1` (centres unmarked) [Example S3, 4'-Cyclopropyl-5,6'-dimethoxy-N-(methyl-D3)-N-(1-(4-(1-methyl-4-(trifluoromethyl)-1 H-imidazol-2-yl)phenyl)ethyl)-[2,5'-bipyrimidin]-4-amine]: the IC50 is 2.7 nM in test [1] and 0.3 nM in the test on MDA-MB-436.

Turning to `COc1ncnc(C2CC2)c1-c1ncc(OC(F)F)c(NCc2ccc(-n3nc(C(F)(F)F)cc3C)cc2)n1` [Example 135, 4'-Cyclopropyl-5-(difluoromethoxy)-6'-methoxy-N-(4-(5-methyl-3-(trifluoromethyl)-1H-pyrazol-1-yl)benzyl)-[2,5'-bipyrimidin]-4-amine], the IC50 in test [1] was 3.2 nM; in the test on MDA-MB-436, 15.8 nM.

On to `COc1cnc(-c2c(OC)ncnc2C2CC2)nc1N(C)CC1CCN(c2nc(C(F)(F)F)cn2C)CC1` [Example 92, 4'-Cyclopropyl-5,6'-dimethoxy-N-methyl-N-((1-(1-methyl-4-(trifluoromethyl)-1 H-imidazol-2-yl)piperidin-4-yl)methyl)-[2,5'-bipyrimidin]-4-amine], for which the IC50 in test [1] was 3.3 nM; in the test on MDA-MB-436, 27.3 nM.

In the case of `COc1cnc(-c2c(Cl)cnn2C(C)C)nc1NCc1ccc(-c2nc(C(F)(F)F)cn2C)cc1` [Example 164, 2-(4-Chloro-1-isopropyl-1H-pyrazol-5-yl)-5-methoxy-N-(4-(1-methyl-4-(trifluoromethyl)-1H-imidazol-2-yl)benzyl)pyrimidin-4-amine], the IC50 was determined as 1.1 nM in test [1] and 0.8 nM with MDA-MB-436.

`COc1ncnc(C2CC2)c1-c1nc(NCc2ccc(-n3nc(C(F)(F)F)cc3C)cc2)c2occc2n1` [Example 50, 2-(4-Cyclopropyl-6-methoxypyrimidin-5-yl)-N-(4-(5-methyl-3-(trifluoromethyl)-1H-pyrazol-1-yl)benzyl)furo[3,2-d]pyrimidin-4-amine]: the IC50 stood at 5.2 nM in test [1] and 0.022 nM in the test with MDA-MB-436.

For the compound `Cc1cc(C(F)(F)F)nn1-c1ccc(CNc2nc(-c3ccccc3C3CC3)nc3ccoc23)cc1` [Example 174, 2-(2-Cyclopropylphenyl)-N-(4-(5-methyl-3-(trifluoromethyl)-1H-pyrazol-1-yl)benzyl)furo[3,2-d]pyrimidin-4-amine], the IC50 in test [1] was found to be 5.1 nM; in the test with MDA-MB-436, 43.7 nM.

For the compound `COc1cnn(C(C)C)c1-c1nc(NCc2ccc(-n3nc(C(F)(F)F)cc3C)cc2)c2occc2n1` [Example 182, 2-(1-Isopropyl-4-methoxy-1H-pyrazol-5-yl)-N-(4-(5-methyl-3-(trifluoromethyl)-1H-pyrazol-1-yl)benzyl)furo[3,2-d]pyrimidin-4-amine], the results for the IC50 (in test [1]; in the test with MDA-MB-436) were 7.4 nM and 6 nM, respectively.

For the compound `COc1cnc(-c2c(Cl)cnn2C(C)C)nc1NCc1ccc(-n2nc(C(F)(F)F)cc2C)cc1` [Example 165, 2-(4-Chloro-1-isopropyl-1H-pyrazol-5-yl)-5-methoxy-N-(4-(5-methyl-3-(trifluoromethyl)-1H-pyrazol-1-yl)benzyl)pyrimidin-4-amine], the IC50 in test [1] was 1.4 nM; in the test with MDA-MB-436, 7.1 nM.

Usually IC50 stands for the point on the concentration scale where inhibition reaches its midpoint.
